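1) Cells in 96-well plates. 2) Compound, 48 h, 5 concentrations. 3) Linear interpolation between surrounding doses. 4) Unreached endpoint = highest concentration. Here, GI50 denotes the concentration required for 50% inhibition of growth.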 Active and inactive are the calls of the source. Rule as the data show it: active = GI50 up to about 1.1 µM and inactive = higher.
Legend:
Assay in all cases: NCI-60 cell line screen, 48 h
NCI-H23 = test system: NCI-H23
UACC-62 = test system: UACC-62
786-0 = test system: 786-0
U-251 = test system: U-251
HT-29 = test system: HT-29
RXF 393 = test system: RXF 393
OVCAR-5 = test system: OVCAR-5
CCRF-CEM = test system: CCRF-CEM
SF-268 = test system: SF-268
HOP-62 = test system: HOP-62
SF-295 = test system: SF-295
SW-620 = test system: SW-620
SK-MEL-28 = test system: SK-MEL-28
A549 = test system: A549
M14 = test system: M14
RPMI-8226 = test system: RPMI-8226
SK-MEL-5 = test system: SK-MEL-5
A498 = test system: A498

Measured: GI50

O=C(O)C1(c2ccccc2)CCCNCC1 (stereo unspecified)
inactive: NCI-H23 > 100 µM | UACC-62 > 100 µM | 786-0 > 100 µM | U-251 > 100 µM | HT-29 > 100 µM | RXF 393 > 100 µM | OVCAR-5 > 100 µM | CCRF-CEM > 100 µM | SF-268 > 100 µM | HOP-62 > 100 µM | SF-295 > 100 µM | SW-620 > 100 µM | SK-MEL-28 > 100 µM | A549 > 100 µM | M14 > 100 µM | RPMI-8226 > 100 µM | SK-MEL-5 > 100 µM | A498 > 100 µM

CCOC(=O)C1=C(O)C(=O)c2ccsc2C1=O
inactive: NCI-H23 > 100 µM | UACC-62 > 100 µM | 786-0 > 100 µM | U-251 > 100 µM | HT-29 > 100 µM | RXF 393 > 100 µM | OVCAR-5 > 100 µM | CCRF-CEM > 100 µM | SF-268 > 100 µM | HOP-62 > 100 µM | SF-295 > 100 µM | SW-620 > 100 µM | SK-MEL-28 > 100 µM | A549 > 100 µM | M14 > 100 µM | RPMI-8226 > 100 µM | SK-MEL-5 > 100 µM | A498 > 100 µM

OCn1nc2c(C3OCCO3)cc3ccccc3n2c1=S
inactive: NCI-H23 > 100 µM | UACC-62 > 100 µM | 786-0 > 100 µM | U-251 > 100 µM | HT-29 > 100 µM | RXF 393 > 100 µM | OVCAR-5 > 100 µM | CCRF-CEM > 100 µM | SF-268 > 100 µM | HOP-62 > 100 µM | SF-295 > 100 µM | SW-620 > 100 µM | SK-MEL-28 > 100 µM | A549 > 100 µM | M14 > 100 µM | RPMI-8226 > 100 µM | SK-MEL-5 > 100 µM | A498 > 100 µM

O=C1C2C3SC(c4cc5ccccc5cc43)C2C(=O)N1c1ccccc1 (stereo unspecified)
inactive: NCI-H23 98.9 µM | UACC-62 95.1 µM | 786-0 50.8 µM | U-251 68.2 µM | HT-29 > 100 µM | RXF 393 28.1 µM | OVCAR-5 > 100 µM | CCRF-CEM > 100 µM | SF-268 > 100 µM | SF-295 > 100 µM | SW-620 > 100 µM | SK-MEL-28 88.5 µM | A549 > 100 µM | M14 > 100 µM | RPMI-8226 > 100 µM | SK-MEL-5 > 100 µM | A498 41.8 µM
